Activity calls are given as the source filed them. The calls are words filed in the database; no cut-off is given here.

The species named for assay [1] is Rattus norvegicus. The assay is described as follows: (§1) In vitro inhibition of sorbitol accumulation was measured in rat sciatic nerves incubated in the presence of 50 mM glucose at 10e-6 M concentration. It counts as functional, Sciatic nerve.
The species named for assay [2] is Rattus norvegicus. Kind of assay: Inhibition of galactitol accumulation in rat lens incubated in presence of 50 mM glucose. Type of assay: functional, organism-based. The conditions noted are these: Lens of camera-type eye.
The species entered for assay [3] is Rattus norvegicus. The assay is described as follows: (§2) In vitro inhibition of sorbitol accumulation was measured in rat sciatic nerves incubated in the presence of 50 mM glucose at 10e-5 M concentration. Type of assay: functional, Sciatic nerve.
The test system of assay [4] is Rattus norvegicus. The assay is described as follows: In vivo inhibition of galactitol accumulation in diaphragm of rat at 5 mg/kg/day. Type of assay: functional.
The species entered for assay [5] is Rattus norvegicus. Kind of assay: Inhibition of galactitol accumulation in rat RBC incubated in presence of 50 mM glucose. Type of assay: functional, organism-based.
For assay [6], the system named is Rattus norvegicus. The assay is described as follows: In vivo inhibition of galactitol accumulation in sciatic nerves of galactose fed rat. Type of assay: functional. Particulars: Sciatic nerve.
Assay [7] has as its system Rattus norvegicus. The assay is described as follows: In vivo inhibition of galactitol accumulation in sciatic nerves of rat at 5 mg/kg/day. It counts as functional. The conditions noted are these: Sciatic nerve.
For assay [8], the species on record is Rattus norvegicus. The assay is described as follows: Inhibition of galactitol accumulation in sciatic nerves of rat incubated in presence of 50 mM glucose. It counts as functional, organism-based. Particulars: Sciatic nerve.
The subject of assay [9] is Rattus norvegicus. Kind of assay: In vivo inhibition of galactitol accumulation in sciatic nerves of rat at 10 mg/kg/day. Type of assay: functional. The conditions noted are these: Sciatic nerve.
In assay [10] the test system is Rattus norvegicus. The assay is described as follows: In vivo inhibition of galactitol accumulation in the RBC of galactose fed rat. It counts as functional.
Assay [11] is filed under the species Rattus norvegicus. Kind of assay: Inhibition of aldose reductase activity was measured by measuring sorbitor accumulation in the sciatic nerves of STZ diabetic rat. It counts as functional. Particulars: Sciatic nerve.
Assay [12] concerns Rattus norvegicus. Kind of assay: In vivo inhibition of galactitol accumulation in diaphragm of rat at 10 mg/kg/day. It counts as functional.
Assay [13] deals with Aldo-keto reductase family 1 member B1 (Bos taurus) (UniProt P16116). Kind of assay: Inhibition of aldose reductase activity was measured on partially purified bovine lens preparations incubated in presence of 50 mM glucose; Not active.
Assay [14] concerns Rattus norvegicus. Kind of assay: In vivo inhibition of galactitol accumulation in sciatic nerves of rat at 20 mg/kg/day. Type of assay: functional. Particulars: Sciatic nerve.
Assay [15] relates to Rattus norvegicus. Kind of assay: In vivo inhibition of galactitol accumulation in sciatic nerves of rat at 16 mg/kg/day. Particulars: Sciatic nerve. It counts as functional.
Assay [16] concerns Rattus norvegicus. The assay is described as follows: In vivo inhibition of galactitol accumulation in diaphragm of rat at 20 mg/kg/day. It counts as functional.
For assay [17], the target named is Aldo-keto reductase family 1 member B1 (Bos taurus) (UniProt P16116). Kind of assay: In vitro % decrease of aldose reductase measured in isolated partially purified bovine lens preparations at 10e-7 M concentration.
The subject of assay [18] is Rattus norvegicus. The assay is described as follows: In vivo inhibition of galactitol accumulation in diaphragm of rat at 28 mg/kg/day. Type of assay: functional.
Assay [19] deals with Rattus norvegicus. The assay is described as follows: In vivo inhibition of galactitol accumulation in sciatic nerves of rat at 28 mg/kg/day. Type of assay: functional. Particulars: Sciatic nerve.
The test system of assay [20] is Rattus norvegicus. Kind of assay: In vivo inhibition of galactitol accumulation in sciatic nerves of rat at 51 mg/kg/day. It counts as functional. Particulars: Sciatic nerve.
In assay [21] the test system is Rattus norvegicus. Kind of assay: In vivo inhibition of galactitol accumulation in diaphragm of rat at 51 mg/kg/day. Type of assay: functional.
Assay [22] concerns Rattus norvegicus. Kind of assay: % reduction of aldose reductase inhibition was evaluated by measuring galactitol accumulation in diaphragm of rat at 112 mg/kg/day; Not significant. Type of assay: functional, organism-based.
Assay [23] has as its system Rattus norvegicus. Kind of assay: In vivo inhibition of galactitol accumulation in sciatic nerves of rat at 19 mg/kg/day. Type of assay: functional. Particulars: Sciatic nerve.
Assay [24] has as its system Rattus norvegicus. Kind of assay: In vivo inhibition of galactitol accumulation in diaphragm of rat at 19 mg/kg/day. Type of assay: functional.
The subject of assay [25] is Rattus norvegicus. Kind of assay: In vivo inhibition of galactitol accumulation in sciatic nerves of rat at 112 mg/kg/day; Not significant. Particulars: Sciatic nerve. It counts as functional, organism-based.
Assay [26] is filed under the species Rattus norvegicus. The assay is described as §1. Type of assay: functional. Particulars: Sciatic nerve.
Assay [27] is filed under the species Rattus norvegicus. The assay is described as follows: % inhibition of aldose reductase was measured in rat serbital sciatic nerves incubated in the presence of 50 mM glucose at 10e-6 M concentration. Type of assay: functional, Sciatic nerve.
The subject of assay [28] is Rattus norvegicus. The assay is described as follows: Effective dose of aldose reductase was evaluated by measuring galactitol accumulation in sciatic nerves of rat at 5 mg/kg/day. Type of assay: functional. The conditions noted are these: Sciatic nerve.
The species named for assay [29] is Rattus norvegicus. Described as §2. It counts as functional. Particulars: Sciatic nerve.
Assay [30] deals with Aldo-keto reductase family 1 member B1 (Bos taurus, UniProt P16116). The assay is described as follows: In vitro Inhibition of aldose reductase was measured in isolated partially purified bovine lens preparations at 10e-7 M concentration.
Assay [31] has as its system Rattus norvegicus. Kind of assay: In vivo inhibition of galactitol accumulation in diaphragm of rat at 97 mg/kg/day. It counts as functional.
For assay [32], the system named is Rattus norvegicus. Kind of assay: In vivo inhibition of galactitol accumulation in sciatic nerves of rat at 97 mg/kg/day. Type of assay: functional. Particulars: Sciatic nerve.
Assay [33] concerns Rattus norvegicus. The assay is described as follows: In vivo inhibition of galactitol accumulation in sciatic nerves of rat at 6 mg/kg/day. The conditions noted are these: Sciatic nerve. Type of assay: functional.
For assay [34], the species on record is Rattus norvegicus. Kind of assay: inhibition of aldose reductase activity was measured by measuring […] in the RBC of galactose fed rat. Type of assay: functional.
For assay [35], the species on record is Rattus norvegicus. The assay is described as follows: inhibition of aldose reductase activity was measured by measuring sorbitor accumulation in the sciatic nerves of STZ diabetic rat. Type of assay: functional. Particulars: Sciatic nerve.
Assay [36] is filed under the species Rattus norvegicus. Kind of assay: inhibition of aldose reductase activity was measured by measuring […] in the sciatic nerves of galactose fed rat. It counts as functional. Particulars: Sciatic nerve.
Assay [37] concerns Rattus norvegicus. The assay is described as follows: In vivo inhibition of galactitol accumulation in diaphragm of rat at 6 mg/kg/day. It counts as functional.
The test system of assay [38] is Rattus norvegicus. Kind of assay: In vivo inhibition of galactitol accumulation in sciatic nerves of rat at 94 mg/kg/day; Not significant. Type of assay: functional, organism-based. Particulars: Sciatic nerve.
The subject of assay [39] is Rattus norvegicus. The assay is described as follows: In vivo inhibition of galactitol accumulation in diaphragm of rat at 94 mg/kg/day. Type of assay: functional.

As usually defined, the Inhibition is how much of the control response was suppressed. A word on the IC50: it is the concentration at which inhibition is half-maximal. For orientation: inhibition in vivo means the drop in the measured response relative to a control, in per cent. A lower inhibition in vivo goes with a response near the control. The term ED50 denotes the dose at which the effect has come halfway, by size or by number of responders. A high value points to a need for a large dose. In general, inhibition refers to the share of the control response that was lost under treatment. As to `COc1ccc2c(C(=O)N(C)CC(N)=O)c(F)ccc2c1C(F)(F)F`, the Inhibition in the assay listed under Rattus norvegicus [1] was determined as 17%; in the assay listed under Rattus norvegicus [3] it was 80%. Further, the IC50 was more than 10 µM in the assay filed under Rattus norvegicus [2], 12 µM in the assay filed under Rattus norvegicus [5] and 3.1 µM in the assay filed under Rattus norvegicus [8]. The inhibition in vivo at 5 mg/kg/day in the assay on Rattus norvegicus [4] came out at 32%; in the assay with Rattus norvegicus [7], 39%. For the same molecule, the 50% effective dose (ED50) is 5.5 mg/kg in the assay on Rattus norvegicus [6], 8.5 mg/kg in the assay with Rattus norvegicus [10] and less than 3 mg/kg in the assay filed under Rattus norvegicus [11]. For the same molecule, the inhibition in vivo at 10 mg/kg/day with Rattus norvegicus [9] came out at 59%; in the assay on Rattus norvegicus [12], 41%. In addition, in assay [13], the inhibition entry is “inactive”.

For the molecule `COc1ccc2c(C(=O)N(C)CC(=O)O)c(F)ccc2c1C(F)(F)F`, the Inhibition in the assay filed under Rattus norvegicus [1] turned out to be 41%; in the assay filed under Rattus norvegicus [3] it was 66%. Besides, the inhibition in vivo at 20 mg/kg/day came to 62% in the assay with Rattus norvegicus [14] and 72% with Rattus norvegicus [16]. In addition, the inhibition in vivo at 16 mg/kg/day in the assay with Rattus norvegicus [15] was 45%. Besides, the inhibition in assay [17] worked out at 80%.

Take `CCOc1ccc2c(C(F)(F)F)c(OC)ccc2c1C(=S)N(C)CC(=O)O`: the inhibition in vivo at 28 mg/kg/day in the assay on Rattus norvegicus [18] was 85%; in the assay with Rattus norvegicus [19], 46%. The molecule also showed an inhibition in [17] of 87%.

Turning to `COC(=O)N(CC(=O)O)C(=O)c1c(Br)ccc2c(C(F)(F)F)c(OC)ccc12`, the Inhibition amounted to 29% in the assay filed under Rattus norvegicus [1] and 68% in the assay filed under Rattus norvegicus [3]. For the same molecule, the inhibition in vivo at 51 mg/kg/day is 69% in the assay on Rattus norvegicus [20] and 62% in the assay with Rattus norvegicus [21]. The molecule also registered an inhibition in [17] of 77%.

For `COc1c(C)cc2c(C(=O)N(C)CC(=O)O)cccc2c1Br`, the inhibition entry with Rattus norvegicus [22] and in the assay with Rattus norvegicus [25] was “inactive” in each case. Besides, the values for the inhibition in vivo at 19 mg/kg/day in the assay on Rattus norvegicus [23] and with Rattus norvegicus [24] were 77% and 63%, respectively. The inhibition in assay [17] is 20%.

On to `O=C(O)Cc1nn(Cc2ccc(Br)cc2F)c(=O)c2ccccc12` [PONALRESTAT], for which the IC50 in the assay listed under Rattus norvegicus [26] worked out at 0.037 µM; in the assay filed under Rattus norvegicus [29] it was 1.4 µM; in assay [30] it was 0.037 µM. Besides, the Inhibition in the assay filed under Rattus norvegicus [3] is 100%; in the assay filed under Rattus norvegicus [27] it was 35%. The figures for the inhibition in vivo at 5 mg/kg/day in the assay on Rattus norvegicus [4] and in the assay on Rattus norvegicus [7] were 63% and 61%, respectively. For the same molecule, it took a dose of 4 mg/kg to reach the 50% effect level in the assay on Rattus norvegicus [28] (ED50).

In the case of `COc1ccc2c(C(=O)N(C)CC(=O)O)c(Br)ccc2c1C(F)(F)F`, the values for the Inhibition in the assay filed under Rattus norvegicus [1] and in the assay listed under Rattus norvegicus [3] were 37% and 67%, respectively. Also, the figures for the inhibition in vivo at 97 mg/kg/day in the assay with Rattus norvegicus [31] and in the assay with Rattus norvegicus [32] were 84% and 44%, respectively. The molecule further returned an inhibition in assay [17] of 63%.

Regarding `COc1ccc2c(C(=S)N(C)CC(=O)O)cccc2c1C(F)(F)F` [TOLRESTAT], the Inhibition was found to be 61% in the assay listed under Rattus norvegicus [1] and 82% in the assay filed under Rattus norvegicus [3]. The IC50 in the assay listed under Rattus norvegicus [2] is 1 µM; in the assay listed under Rattus norvegicus [5] it was 0.015 µM; in the assay filed under Rattus norvegicus [8], 0.54 µM. Also, the inhibition in vivo at 6 mg/kg/day in the assay on Rattus norvegicus [33] worked out at 53%; with Rattus norvegicus [37], 80%. The ED50 in the assay filed under Rattus norvegicus [34] is less than 2 mg/kg; in the assay listed under Rattus norvegicus [35], 4.8 mg/kg; in the assay filed under Rattus norvegicus [36], 6.4 mg/kg.

As to `CCCCc1ccc2c(C(F)(F)F)c(OC)ccc2c1C(=O)N(C)CC(=O)O`, the inhibition result in the assay on Rattus norvegicus [38] is “inactive”. The inhibition in vivo at 94 mg/kg/day with Rattus norvegicus [39] came to 37%. The inhibition in assay [17] stood at 23%.

These data come from ChEMBL document CHEMBL1125860 (J Med Chem, 1991).
